{"source": "patent US20200129450A1", "about": "“COMPOSITION COMPRISING OSMUNDACETONE OR PHARMACEUTICALLY ACCEPTABLE SALT THEREOF FOR PREVENTING OR TREATING BONE DISEASE” (KORPHARM CO., LTD., priority 2016, published 2020)", "key": {"[1]": {"test_system": "cancer cell lines", "assay": "MTT assay cytotoxicity, cancer cell lines (summary)", "assay_type": "cell-based", "conditions": "summary range", "description": "(§1) MTT assay was as follows.\n(§2) Cells were incubated at 1×10^3 cells/well in a 96-well plate containing DMEM with 10% fetal bovine serum (FBS) at 5% CO2 and 37° C., and then osmundacetone was added to the cell medium, followed by incubation for 24 hours. Thereafter, 100 μL of MTT (0.5 mg/ml PBS) was administered, followed by incubation for 2 hours. Thereafter, the medium was removed from each well, and 100 μL of DMSO was added. After incubation for 10 minutes, the absorbance was measured using a microplate reader (SPCTRA MAX 340PC, Molecular Devices, USA) at 570 nm. The absorbance is an indicator showing the number of living cells, and calculated by the following equation.\n(§3) Cell proliferation (%)=OD550(sample)/OD550(control)"}, "[2]": {"assay": "MTT assay cytotoxicity, cancer cell lines (summary)", "assay_type": "cell-based", "conditions": "human cancer cell lines (AGS, PC3) compared with human normal cell lines (HaCaT, ADMSC); read-out: cancer selectivity index in cell cytotoxicity", "description": "as §1, §2, §3"}, "[3]": {"test_system": "osteoclasts co-incubated with MC3T3-E1 cells", "assay": "Co-culture of osteoclasts and osteoblasts: osteoclast proliferation and differentiation", "assay_type": "cell-based, mouse", "conditions": "10 μM", "description": "1×10^5 C57BL/6 mouse bone marrow mononuclear cells per well of a 48-well plate were prepared in the same manner as described above, and co-incubated together with 1.5×10^4 MC3T3-E1 murine osteoblasts, using 500 μL of α-MEM containing 10% FBS and 1% antibiotic (100 U/mL penicillin G and […] streptomycin) in the conditions of 37° C. and 5% CO2 while the medium was exchanged every three days.\nPositive control cells were co-incubated together with osteoclast differentiation factors M-CSF (60 ng/mL) and RANKL (150 ng/mL), and osteoblast differentiation factors ascorbic acid (50 μg/mL) and 10 mM R-glycerophosphate.\nNegative control cells were incubated by adding only M-CSF as a differentiation factor. In order to examine effects of osmundacetone on the differentiation of osteoclasts and osteoblasts, osmundacetone were administered at a final concentration of 10 μM into the positive control cells on day 1 after the cells were dispensed on the plate.\nIn order to investigate whether or not osmundacetone has ability to inhibit osteoclast differentiation and activate osteoblast differentiation simultaneously, bone marrow mononuclear cells collected from C57BL/6 mice and MC3T3-E1 cells as osteoblast precursor cells were co-incubated in a 48-well plate at cell concentrations of 1×10^5 bone marrow cells and 3×10^3 MC3T3-E1 cells per well. […]"}, "[4]": {"test_system": "HaCaT human epidermal keratinocytes", "assay": "MTT assay cytotoxicity", "assay_type": "cell-based", "conditions": "24 hours, read-out: IC50 according to MTT assay", "description": "(§4) HaCaT human epidermal keratinocytes, # ATCC PCS-200-011) were incubated using Dulbecco's modified Eagle's medium (DMEM, # DMEM-HPA, Capricorn Scientific, Ebsdorfergrund, Germany) in the conditions of 37° C. and 5% CO2. NIH3T3 mouse embryo fibroblasts (# KCLB 21658), RAW264.7 murine macrophages (preosteoclast cell line, # KCLB 40071), HCT116 human colon cancer cells (# KCLB 10247), PC3 human prostate adenocarcinoma cells (# KCLB 21435), HT1080 human fibrosarcoma cells (# KCLB 1121), and B16F10 mouse malignant melanoma cells (# KCLB 80008) were purchased from the Korean Cell Line Bank, and incubated using DMEM in the conditions of 37° C. and 5% C02.\n(§5) The compound isolated from Osmunda japonica, prepared in section 1 of <Example 1>, was investigated for cytotoxicity using MTT assay.\nas §1\nas §2, with “equation. The reproducibility thereof was validated by three experiments.” for “equation.”\nas §3"}, "[5]": {"test_system": "RAW264.7 mouse macrophage cell line", "assay": "MTT assay cytotoxicity", "assay_type": "cell-based", "conditions": "RAW264.7, 24 hours", "description": "as §4, §5, §1\nas §2, with “equation. The reproducibility thereof was validated by three experiments.” for “equation.”\nas §3"}, "[6]": {"test_system": "PC3 human prostate adenocarcinoma", "assay": "MTT assay cytotoxicity", "assay_type": "cell-based", "conditions": "PC3, 24 hours", "description": "as §4, §5, §1\nas §2, with “equation. The reproducibility thereof was validated by three experiments.” for “equation.”\nas §3"}}, "data": [{"smiles": "CC(=O)/C=C/c1ccc(O)c(O)c1", "note": "[Osmundacetone, (3E)-4-(3,4-dihydroxyphenyl)-3-buten-2-one]", "values": [{"measurement": "LD50 for several cancer cell lines", "setting": "[1]", "result": "50 to 70", "unit": "µM"}, {"measurement": "selectivity ratio at 24 h", "setting": "[2]", "result": "45 to 60"}, {"measurement": "proliferation and differentiation of osteoclasts in co-incubation", "setting": "[3]", "result": "completely inhibited"}, {"measurement": "mature osteoclasts in co-incubation", "setting": "[3]; day 6 after administration", "result": "completely disappeared"}, {"measurement": "IC50", "setting": "[4]", "result": "3.51 ± 0.11", "unit": "mM"}, {"measurement": "LD50 (MTT assay)", "setting": "[5]", "result": "507 ± 98", "unit": "µM"}, {"measurement": "LD50 (MTT assay)", "setting": "[6]", "result": "65.5 ± 8.7", "unit": "µM"}]}]}
